Tests used:
ICR mice = assay: Acute toxicity at 125 mg/kg, 7-day observation and histopathology; type: in vivo
Protocol: For the acute toxic study, 8‐week‐old ICR mice (n = 6 per group) were administered a single intraperitoneal injection of LZQ‐02‐023‐01 at escalating doses. A vehicle‐treated group served as control. Survival was monitored continuously for 24 h postadministration. Additionally, another cohort of ICR mice (n = 5 per group) received a single intraperitoneal dose of LZQ‐02‐023‐01 at 125 mg/kg and were subsequently monitored daily for 7 days for clinical signs of toxicity, behavioral changes, body weight fluctuations, and mortality. At the conclusion of the observation period, animals were euthanized and subjected to a comprehensive gross necropsy. Major organs, including the liver, kidney, heart, lung, and spleen, were harvested for histopathological examination. For the chronic toxic study, 8‐week‐old ICR mice (n = 5 per group) received daily intraperitoneal injections of LZQ‐02‐023‐01 at a therapeutic dose of 40 mg/kg for 14 consecutive days. A vehicle‐treated group was included as a control. Throughout the treatment period, animals were monitored daily for clinical signs of toxicity and weighed every 2 days. At study termination, blood samples were collected for hematological and biochemical analyses. […]

ATK orthotopic tumors = assay: Orthotopic ATK cell gastric cancer allograft model with flow cytometry of tumor-infiltrating cells; type: in vivo, C57BL/6 mice
Protocol: Orthotopic gastric cancer models were established by surgically implanting 1 × 10⁶ METTL10‐overexpressing or vector control ATK cells into the gastric subserosal layer of C57BL/6 mice under aseptic conditions. Tumor tissues were harvested 20 days post‐implantation for subsequent analyses. In a separate cohort, mice bearing orthotopic tumors (1 × 10⁶ cells implanted) received subcutaneous administration of LZQ‐02‐023‐01 at a dose of 40 mg/kg/day, starting 7 days after tumor implantation. The treatment continued daily for 14 consecutive days. Tumor burden and therapeutic response were assessed at the end of the treatment period by excision and analysis of gastric tumors.
Tumor tissues were finely minced into approximately 1 mm^3 pieces and enzymatically digested in Hank's Balanced Salt Solution (HBSS) containing type IV collagenase (2357210, Gibco) at 37 °C for 1 h. The resulting cell suspensions were gently triturated and passed through an 80 µm cell strainer (22131209, Biosharp) to remove debris. Red blood cells were lysed using ACK lysis buffer (R1010, Solarbio) to yield a single‐cell suspension. Cells were subsequently stained with a cocktail of fluorochrome‐conjugated antibodies (1:200 dilution; details listed in Table S6, Supporting Information) and a fixable viability dye (1:200, 2365395, Invitrogen) for 30 min at 4 °C in the dark. After washing, the stained cells were analyzed using a Sony ID7000 spectral flow cytometer (Sony Biotechnology).
Paraffin sections were initially placed in an oven at 65 °C for 30 min to melt the paraffin. The slides were then immersed in two consecutive xylene baths for 10 min each to dewax the tissue, followed by hydration through a series of graded ethanol solutions. The sections were stained with hematoxylin for 10 min. After differentiation with 1% hydrochloric acid alcohol, the sections were blued with lithium carbonate and counterstained with eosin for 3 min. The slides were then dehydrated in graded ethanol and mounted with neutral resin. All pathological results were performed in a blinded manner by experienced gastrointestinal pathologists. For IHC staining, sections were processed in accordance with the manufacturer's protocol (MXB Biotechnologies). Briefly, antigen retrieval was conducted at 37 °C for 30 min, followed by blocking at room temperature for 10 min. The sections were subsequently incubated with the appropriate primary antibody overnight at 4 °C. The following day, biotin‐conjugated secondary antibodies were applied and incubated for 1 h, followed by streptavidin‐peroxidase incubation for 10 min. Diaminobenzidine (DAB) was employed as the chromogen for visualization, and hematoxylin was used for counterstaining. Imaging was performed using the Olympus VS200 microscope.

[1] = Body weight and organ toxicity in treated tumor-bearing mice; type: in vivo; conditions: K19-C2mE and Cldn18-AT mice
Protocol: For the subcutaneous tumor model, 5 × 10⁶ MKN45 cells suspended in 100 µL of sterile PBS were injected subcutaneously into the flanks of BALB/c nude mice. When tumor volumes reached approximately 50 mm^3, mice were randomized into three groups (Vehicle control, LZQ‐02‐023‐01 at 20 mg/kg or 40 mg/kg, n = 10 per group). All treatments were administered via intraperitoneal injection once daily for 14 consecutive days. Tumor volumes were measured every 2 days using calipers and calculated using the formula: volume = [length × (width[2])]/2. Mice were sacrificed on day 24 for endpoint analyses. For genetically engineered mouse models (GEMMs), 25‐week‐old K19‐C2mE mice were randomized into Vehicle control (n = 8) and LZQ‐02‐023‐01 treatment (40 mg/kg, n = 8) groups. Both groups received daily intraperitoneal injections for 28 consecutive days. Similarly, 8‐week‐old Cldn18‐AT mice were induced with tamoxifen (100 mg/kg, T5648, Sigma) and, 2 weeks post‐induction, randomized into Vehicle (n = 6) and LZQ‐02‐023‐01 (40 mg/kg, n = 6) treatment groups. Treatments were administered daily via intraperitoneal injection for 28 days.

[2] = 40 mg/kg/day for 14 days, flow cytometry
[3] = MKN45 xenograft, 20 or 40 mg/kg/day

## Cc1ccc(Nc2ncc3c(n2)N(C)C(=O)N(c2cccc(N)c2)C3)cn1 [LZQ-02-023-01, Three‐(3‐aminophenyl)‐1‐methyl‐7‐((6‐methylpyridin‐3‐yl)amino)‐3,4‐dihydropyrimido [4,5‐d] pyrimidin‐2 (1H)‐one]
ICR mice; 7 days
  Signs of overt toxicity: did not observe any signs of overt toxicity
ICR mice; end of 7-day period
  Histopathological analysis of major organs: no apparent tissue damage
ATK orthotopic tumors; 40 mg/kg/day for 14 consecutive days, ATK orthotopic model, vs vehicle
  Tumor burden: significant reduction in tumor burden
ATK orthotopic tumors; 40 mg/kg/day for 14 days
  Proliferative activity (Ki-67 expression) of tumors: reduced proliferative activity
ATK orthotopic tumors; [2]
  Tumor-infiltrating B cells: modest decrease
  Tumor-infiltrating T lymphocytes (CD4+ and CD8+): moderate increase
[1]; 40 mg/kg/day
  Spleen weight: reduction
[1]; [3]
  Body weight loss: did not cause substantial weight loss
  Discernible toxic effects on other organs: did not cause

Source: PMC12752606, “METTL10‐Mediated PIAS3 Methylation Links Purine Metabolism to Gastric Cancer Progression” (Advanced Science, 2025)
